# Measured values taken from patent publication US20260226105A1, “Antimicrobial And Antibiofilm Peptides Sequences With Metal-Binding Motifs” (The Trustee of the University of Pennsylvania, priority 2021, published 2026).
# Where two headings read alike, the source gives them in different places.
# Experiments:
# [1] = tested on: E. coli (KpC+1812446) biofilm; conditions: Table 7, biofilm
# [2] = tested on: K. pneumoniae (ATCC13883); conditions: agent alone, BM2 minimal medium
# E. coli (KpC1812446) [3] = conditions: agent alone, BM2 minimal medium
# E. coli (KpC1812446) [4] = experiment: microbe, parasite or virus in culture; conditions: Escherichia coli
# [5] = tested on: E. coli (KpC+1812446) planktonic cells; conditions: Table 8, planktonic cells
# [6] = tested on: K. pneumoniae (ATCC13883); experiment: microbe, parasite or virus in culture; conditions: Klebsiella pneumoniae
# E. coli (ATCC 25922) = conditions: Cu(II) in MH broth, determined in our laboratory
# S. aureus (ATCC 25923) = conditions: Cu(II) in MH broth, determined in our laboratory
# [7] = antibiotic in combination with CM15
# [8] = antibiotic in combination with GGH-CM15
# [9] = antibiotic in combination with VIH-CM15
MIC (E. coli (KpC1812446) [4]),MIC [6],SMILES,MBIC Antibiotic alone [1],"MBIC Antibiotic + Peptide [1, 7]","MBIC Antibiotic + Peptide [1, 8]","MBIC Antibiotic + Peptide [1, 9]",MBIC [2],MBIC (E. coli (KpC1812446) [3]),MBIC Antibiotic alone [5],"MBIC Antibiotic + Peptide [5, 7]","MBIC Antibiotic + Peptide [5, 8]","MBIC Antibiotic + Peptide [5, 9]",toxic level (E. coli (ATCC 25922)),toxic level (S. aureus (ATCC 25923))
> 183 µM,> 183 µM,"CC1(C)S[C@@H]2[C@H](NC(=O)[C@H](N)c3ccccc3)C(=O)N2[C@H]1C(=O)O [AmP, ampicillin]",366 µM,366 µM,366 µM,366 µM,>183 µM,>183 µM,366 µM,366 µM,366 µM,366 µM,–,–
> 198 µM,> 198 µM,"O=C(N[C@H](CO)[C@H](O)c1ccc([N+](=O)[O-])cc1)C(Cl)Cl [CHL, chloramphenicol]",396 µM,396 µM,396 µM,396 µM,>198 µM,>198 µM,396 µM,0.8 µM,3 µM,0.8 µM,–,–
–,–,"O.O.O.O.O.O=S(=O)([O-])[O-].[Cu+2] [Cu(II) ions, CuSO4·5H2O]",–,–,–,–,–,–,–,–,–,–,7.8 mM,7.8 mM
0.6 µM,> 167 µM,"C[C@@H](O)[C@H]1C(=O)N2C(C(=O)O)=C(S[C@@H]3CN[C@H](C(=O)N(C)C)C3)[C@H](C)[C@H]12 [MER, meropenem]",0.6 µM,0.16 µM,0.013 µM,0.04 µM,>167 µM,0.6 µM,0.6 µM,0.6 µM,0.16 µM,0.3 µM,–,–
14 µM,> 110 µM,"[H]/N=C(/N)N[C@H]1[C@H](O)[C@@H](O)[C@H](O[C@@H]2O[C@@H](C)[C@](O)(C=O)[C@H]2O[C@@H]2O[C@@H](CO)[C@H](O)[C@@H](O)[C@@H]2NC)[C@@H](N/C(N)=N\[H])[C@@H]1O [STR, streptomycin]",14 µM,4 µM,4 µM,7 µM,>110 µM,14 µM,14 µM,4 µM,14 µM,0.4 µM,–,–
